Reference: patent publication US20240335452A1, “COMPOSITIONS AND METHODS OF COMBINATION THERAPY FOR TARGETING LYMPHOMA” (Cullgen (Shanghai), Inc., priority 2021, published 2024)

Tests used:
OCI-LY7 cells = assay: Cell viability assay (CellTiter-Glo) in OCI-LY7 cells; format: cell-based, human
Protocol: (§1) Experiments were performed in cultured human cells to assess the efficacy of combined EZH2 inhibitor and immunomodulatory drug (e.g., an IMiD) treatment using an EZH2-mutant DLBCL cell line, SU-DHL-10, and an EZH2-wild type line, OCI-LY7. Cells were purchased from Nanjing Cobioer Biotechnology. SU-DHL-10 and OCI-LY7 cells were cultured at 37° C. with 5% CO2 in RPMI 1640 Medium supplemented with 10% fetal bovine serum. Cells were authenticated using the short tandem repeat (STR) assays. Mycoplasma test results were negative.
(§2) The cultured cells were seeded at a density of 5000 cells per well in 96-well assay plates and treated with test compounds at 10 μM followed by a 11-point 3-fold serial dilution or an 8-point 10-fold serial dilution. Cell viability was determined after 5 days, using the CellTiter-Glo assay kit (Promega) according to the manufacturer's instructions. The dose-response curves were determined and IC50 values were calculated using the GraphPad Prism software following a nonlinear regression (least squares fit) method. Each data point in the figure represents the mean values of at least two technical replicates ± standard deviation.
(§3) Cells were treated with EZH2 inhibitors in the presence of IMiDs at concentrations sufficient to induce degradation of IKZF1 and IKZF3 but not enough to kill cells. CC-122 and CC-220 were tested at a concentration of 1 μM; CC-92480 and CFT7455 were tested at a concentration of 1 nM; and CC-99282 was tested at a concentration of 10 nM.

SU-DHL-10 cells [1] = assay: Cell viability assay (CellTiter-Glo) in SU-DHL-10 cells; format: cell-based, human; details: SU-DHL-10, single agent, 5 days
Protocol: as §1, §2, §3

SU-DHL-10 cells [2] = assay: as above; format: cell-based, human
IKZF1 or IKZF3 = details: more potent than older IMiDs; stated as 'may be'; cited from earlier work

SMILES	cell viability (sensitivity of the cells to the compound in combination) (OCI-LY7 cells; OCI-LY7, in the presence of 100 nM CPI-0209)	cell viability (sensitivity of the cells to the compound in combination) (OCI-LY7 cells; OCI-LY7, in the presence of 100 nM SHR2554)	cell viability, response of the cells to the single agent (OCI-LY7 cells; OCI-LY7, single agent, 5 days)	cell viability, response of the cells to the single agent (SU-DHL-10 cells [1])	cell viability (sensitivity of the cells to the compound in combination) (SU-DHL-10 cells [2]; SU-DHL-10, in the presence of 100 nM CPI-0209)	cell viability (sensitivity of the cells to the compound in combination) (SU-DHL-10 cells [2]; SU-DHL-10, in the presence of 100 nM SHR2554)	potency with regard to IKZF1 or IKZF3 degradation relative to older IMiDs (IKZF1 or IKZF3)
O=C1CC[C@H](N2C(=O)c3cccc4c(Cc5ccc(CN6CCOCC6)cc5)ccc2c34)C(=O)N1 [CFT7455, (S)-3-(6-(4-(morpholinomethyl)benzyl)-2-oxobenzo[cd]indol-1(2H)-yl)piperidine-2,6-dione]	lowered cell viability more than treatment with CFT7455 alone	lowered cell viability more than treatment with CFT7455 alone	moderately responsive	moderately responsive	lowered cell viability more than treatment with CFT7455 alone	lowered cell viability more than treatment with CFT7455 alone	–
N#Cc1ccc(N2CCN(Cc3ccc(COc4cccc5c4CN([C@H]4CCC(=O)NC4=O)C5=O)cc3)CC2)c(F)c1 [CC-92480, mezigdomide]	–	–	–	–	–	–	1000 fold
